# Laboratory results as given in a melting point compilation (Tetko et al.; mined from patent text by program, amines drawn as free bases though some values may be those of a salt).
row,Structure (SMILES),melting point
1,COc1ccc(CCN)cc1S(N)(=O)=O,164 to 167 °C
2,CCCCc1cn(-c2c(Cl)cccc2Cl)c(=O)n1Cc1ccc(-c2ccccc2-c2nnn[nH]2)nc1,212 °C
3,Cc1cc(C)nc(NC(N)=S)n1,> 260 °C
4,O=C1Nc2cc(C(F)(F)F)ccc2N2CCN(CCc3ccncc3)CC12 (configuration not stated),204 to 206 °C
5,Cc1ccc(C2=NN(c3ccccc3)C(=O)C2)cc1,112 to 113 °C
6,CCCCCCCCCCCCOC(=O)NCCCCC(N)C(=O)O (configuration not stated),> 260 °C
7,CC(=O)NCCC(=O)NCCNC(=O)OCc1ccccc1,180 to 182 °C
8,C=CCc1cc2c(c(CC=C)c1O)CCC(=O)N2CCCNC(N)=O,203 to 204 °C
9,CC(=O)ONC(=N)c1ccc(NC(=O)CCCC(=O)Nc2ccc(C(=N)NOC(C)=O)cc2)cc1,225 to 228 °C
10,COC(=O)[C@]12CN(Cc3ccccc3)C[C@@H]1C(c1ccc(OC)cc1)=CC[C@@]2(C)c1ccccc1 (racemic),132 °C
11,Cc1[nH]c(=O)ccc1C(=O)c1cccs1,227 to 228 °C
12,CC(=O)N(C)c1cc(Cl)ccc1C(=O)c1cnoc1C1CC1,106 to 108 °C
13,CCCC(CCC)C(=O)OC1N=C(c2ccccc2F)c2cc(Cl)ccc2NC1=O (configuration not stated),147 to 149 °C
14,Cc1cc(F)ccc1-c1nc(NC2CCCCC2)nc2c1CCC(=O)N2c1ccccc1F,181 to 182 °C
15,COc1cc(CCC2OCCO2)ccc1OCc1nc(-c2ccccc2)oc1C,90 to 91 °C
16,CCOC(=O)CC1NC(=O)c2ccccc21 (configuration not stated),116 to 118 °C
17,CC(=O)Nc1ncc2cc(-c3c(Cl)cccc3Cl)c(NC(C)=O)nc2n1,223 to 225 °C
18,Fc1ccc2[nH]c3c4ccccc4nc-3c(Cl)c2c1,208 to 210 °C
19,Oc1ccc(N=C2SCS2)cc1,162 to 163 °C
20,COc1c(C)cnc(Cn2cc(C#CCCCN3CCN(C)CC3)c3c(Cl)nc(N)nc32)c1C,160 to 162 °C
21,N#Cc1cc(Cl)nc(SCc2ccc3ccccc3c2)n1,120 to 121 °C
22,CCCCC(NC(=O)C1CC1(C)C)C(=O)OC(C)(C)C (racemic),52 to 65 °C
23,Nc1ccc(Cl)c(Cl)c1Br,78 to 80 °C
24,CCOc1cccc(-c2ccc(C3=CCN(S(=O)(=O)CC(=O)NO)CC3)cc2C)c1,151 to 153 °C
25,CCOC(=O)Cc1cccc2c(=O)cc(C3=CCCCC3)oc12,126 to 127 °C
26,CCOC(=O)CC(=O)Nc1ccc([N+](=O)[O-])cc1,102 to 103 °C

row,Structure (SMILES),melting point
1,CN(Cc1cc(C(F)(F)F)cc(C(F)(F)F)c1)C(=O)c1c(-c2ccc(F)cc2)c2c(c(=O)n1C)CCCN2C,230 to 232 °C
2,Nc1nc(NCCNCC(O)COc2ccccc2)c2[nH]cnc2n1 (configuration not stated),169 to 171 °C
3,N#Cc1c[nH]c2ccccc2c1=O,290 to 300 °C
4,O=C(Nc1cnccn1)Nc1cccc2c1C1CCCCN1C2=O (configuration not stated),215 °C
5,OCc1cn(Cc2ccccc2)nc1OCc1ccccc1,79 to 80 °C
6,Nc1cc(NC(=O)c2cc3cc(F)ccc3n2Cc2cccc(F)c2)ccn1,217 to 218 °C
7,CCOCC1COc2cc3c(Cl)c(C(=O)OCC)cnc3cc2O1 (configuration not stated),106 to 108 °C
8,CN1C(C(=O)OC2CCCCC2)=C(O)c2ccccc2S1(=O)=O,112 °C
9,Cn1ccc(NC(=O)Nc2cccc3c2C2CC4(CCN2C3=O)SCCS4)n1 (configuration not stated),135 °C
10,CCCCCCC(C)OC(=O)c1ccc(-c2ccc(-c3ccc(C(=O)OC(C)CCCCCC)cc3)cc2)cc1 (configuration not stated),81 to 82 °C
11,Cn1nc(-c2ccnc(N[C@H]3CC[C@H](O)CC3)n2)c2ccccc21,180 to 183 °C
12,COc1cccc2c1CCC(C(=O)O)C2C(=O)O (configuration not stated),200 to 201 °C
13,CCC1(CCCCN2CCN(c3ccc(Cl)cc3)CC2)C(=O)Nc2ccccc21 (configuration not stated),145 to 146 °C
14,CCOC(=O)Cc1nc(-c2ccc(Cl)cc2)oc1CC(C)C,56 to 57 °C
15,OCCCC#Cc1ccc(C(=C2CCCCCC2)c2ccc(O)cc2)cc1,125 to 126 °C
16,CCOC(=O)C1(C)OC2(O)C3CCCN3C(=O)C(Cc3ccccc3)N2C1=O (configuration not stated),134 to 136 °C
17,CCCCCCCCCCCCCCCCCC(=O)Oc1cc(OC)cc(OC)c1C(=O)C=Cc1ccc(OC)cc1,65 to 66 °C
18,COc1ccc(C(NCCNC(c2ccccc2)c2ccc(OC)cc2)c2ccccc2)cc1 (configuration not stated),97 to 98 °C
19,CC(C)(C)NC(=O)[C@@H]1C[C@H](Cl)CN1C(=O)[C@@H](O)[C@H](Cc1ccccc1)NC(=O)[C@H](CC(N)=O)NC(=O)c1cnc2cc([N+](=O)[O-])ccc2n1,153 to 156 °C
20,CCc1ccc(OCC(O)CN2CCC3(CC2)CSC2=C(O3)c3ccccc3C(=O)C2=O)cc1 (configuration not stated),137 to 138 °C
21,CCOC(=O)c1cc2cccc(N(C)C(=O)c3cccs3)c2[nH]1,193 °C
22,CCOC(=O)c1cnc2c(c1NCCN(C)C)NC(=O)CN2,183 to 185 °C
23,CN(C)C=C(C=C(C#N)C(=O)OC(C)(C)C)c1cccnc1,161 to 163 °C
24,CN(C)C=C1C(=O)CCc2c1cnn2C,94 to 100 °C
25,CN(C)c1ccc2c(=O)c(-c3nnnn3C)cn(C)c2c1,280 to 283 °C
26,N#Cc1[nH]n(C2CCCC2)c2nc(-c3ccncc3)nc(=O)c1-2,> 300 °C

row,Structure (SMILES),melting point
1,CNC(=C[N+](=O)[O-])NCCc1nnc(NCCCOc2cccc(CN3CCCCC3)c2)n1C,110 to 112 °C
2,COc1nc(SC)nc(Cl)c1C(=O)NCc1ncccn1,176 to 177 °C
3,NC(=O)c1cnc2c([N+](=O)[O-])cccc2c1Cl,277 to 279 °C
4,COc1ccc(-c2cc(Cl)c3cc(O)c(Br)cc3c2)cc1,138 to 139 °C
5,COc1ccc(C(=O)[C@H]2CCCC[C@H]2C(=O)O)cc1OC1CCCC1 (relative stereo),120 to 121 °C
6,CCN(CC)c1cccc2nc3n(c12)C=CCCN3c1ccc(Cl)cc1Cl,105 to 106 °C
7,COC(OC)c1cnc(-c2ccccc2)nc1N,116 to 118 °C
8,NC(=O)COc1c(-c2ccccc2)c(=O)[nH]c2cc(Cl)ccc12,262 to 264 °C
9,CSc1ccc2cc(C(=O)c3ccccc3)cc(CCNC(C)=O)c2c1,126 to 128 °C
10,COc1ccc(C2CCSCC2)cc1OC1CCCC1,83 to 85 °C
11,O=C(O)c1[nH]c2ccc(Cl)cc2c1S(=O)c1ccccc1 (configuration not stated),183 to 185 °C
12,CCCCCN(CCC1CCCCC1)C(=O)NCc1ccncc1,64.7 to 65.8 °C
13,CSCc1cc(C(F)(F)F)ccc1N,65.5 to 67.5 °C
14,CC(=O)Oc1c(C)c2c(c(C)c1OC(C)=O)SC(C)O2 (configuration not stated),82 to 84 °C
15,COc1ccc(C=CC(=O)c2cccc(O)c2)cc1,93 to 94 °C
16,CNc1nc(N)nc2c1ncn2C1CC(F)C(CO)O1 (configuration not stated),111 °C
17,CCCCN(CC)CC(=O)N1c2ccccc2N(C)C(=O)c2cnc(-c3ccccc3)nc21,107 to 109 °C
18,Cc1cc(NCCO)c2[nH]nc(-c3ccc(Cl)cc3)c2n1,222 to 224 °C
19,Cc1cc2c(cc1Cl)[nH]c1c(C(=O)O)cccc12,310 °C
20,CNC(=O)C(Cc1ccc(OC)cc1)NC(=O)C(CC(C)C)C(CC(=O)NCC(=O)O)SC(C)=O (configuration not stated),188 to 192 °C
21,O=C(O)c1cc(S(=O)(=O)N2CCC(Br)C(Br)C2)ccc1Cl (configuration not stated),176 to 178 °C
22,COc1cc(S(C)=O)c(C)cc1OCC(C)=O (configuration not stated),104 to 106 °C
23,Cc1ncn(Nc2cccc(Cl)c2)c1-c1ccccc1,218 °C
24,CNc1nn(C(=O)NC(C)CCc2ccccc2Cl)c(=O)n1C (configuration not stated),133 to 135 °C
25,CC(C)c1cc(-c2cc(C(=O)Cl)ccc2S(C)(=O)=O)on1,102 to 105 °C
26,O=C(c1ccccc1)c1cccc(-c2cccc(Cn3cncn3)c2)c1,121 °C

row,Structure (SMILES),melting point
1,COc1ccc(-c2nn(C(C)C)c(=O)c(C(N)=O)c2-c2ccc(OC)cc2)cc1,165 to 166 °C
2,Cc1c([N+](=O)[O-])ccc2[nH]cc(CCCO)c12,129 to 130 °C
3,CCCCN1C(N)=NS(=O)(=O)NC1Oc1cccc(C)c1 (configuration not stated),217 to 219 °C
4,N#Cc1ncn2c1[C@@H]1CCCN1C(=O)c1c(Cl)cccc1-2,237 to 238 °C
5,O=c1c2ccccc2nc(-c2cc(-c3ccncc3)c(N3CCOCC3)s2)n1-c1ccccc1,230 to 231 °C
6,Cc1cc(-n2ccnc2)c2cccc(OCc3c(Cl)ccc(S(=O)(=O)N4CCC[C@H]4C(=O)N4CCN(C(=O)OC(C)(C)C)CC4)c3Cl)c2n1,98 °C
7,Nc1cc(C2CC2)nn1C(=O)Nc1ccccc1,97 to 99 °C
8,CCCCCCCCN(CCCCCCCC)C(=O)CS(=O)(=O)Nc1c(C(C)C)cccc1C(C)C,107 to 109 °C
9,O=C(c1ccc(C(F)(F)F)cc1)c1cccc(O)c1,130 °C
10,N#CCN1CCC(N2CCN(CCCN3CCCCC3)C2=C(C#N)C#N)CC1,135 to 136 °C
11,O=C(CCl)Nc1cc2c(Nc3cc(Cl)c(Cl)cc3F)ncnc2cc1OCCOCCF,167 to 169 °C
12,C#Cc1ccc(NC=C(C(=O)NCCC)C(=O)c2ccccc2Cl)cc1,95 to 96 °C
13,COc1ccccc1OCC(O)CCN1CCN(c2ccccc2)CC1 (configuration not stated),101 to 102 °C
14,O=CCC[C@@H]1[C@@H](OCc2ccc(-c3ccccc3)cc2)CO[C@@H]1c1cccnc1,204 to 205 °C
15,CCOC(=O)c1ccc(NC(=O)/C=C/c2cnn(C)c2-c2ccc(F)cc2)cc1,202 to 203 °C
16,Cc1cccc(/C=C/C2=CCN(Cc3c[nH]c4ncccc34)CC2)c1,210 to 212 °C
17,Nc1nc(Nc2ccc(S(N)(=O)=O)cc2)sc1C(=O)c1ccc(C(=O)O)cc1,298 to 300 °C
18,COc1ccc(C(C)=O)c2cccc(S(=O)(=O)N(C)C)c12,124 to 127 °C
19,NS(=O)(=O)c1cccc(C2OCCO2)c1,145 to 147 °C
20,COc1ccnc(CS(=O)c2nc3cc4c(cc3[nH]2)OC(F)(F)O4)c1 (configuration not stated),184 to 185 °C
21,Cn1cc(C(=O)O)c(=O)c2cc(F)c(Cl)cc21,342 °C
22,COc1cc(C(O)C(Cl)(Cl)Cl)cc(OC)c1O (configuration not stated),160 to 162 °C
23,CCCCCS(=O)(=O)NC(=O)/C=C/c1ccc(OCCOC)cc1NC(=O)c1ccc(F)cc1F,140 to 141 °C
24,CCOC(=O)C1(C(=O)OCC)COC2(CC(C)(C)N(C(C)=O)C(C)(C)C2)OC1,75 to 77 °C
